Experimental data published in paper PMC6594366 (Journal of the American Chemical Society, 2018).

Molecular target: human serum albumin (HSA) (Homo sapiens, UniProt P02768)
Assay: fluorescent probe displaced from HSA by GdLx
Format: binding

human serum albumin (HSA), sequence (P02768 25-609): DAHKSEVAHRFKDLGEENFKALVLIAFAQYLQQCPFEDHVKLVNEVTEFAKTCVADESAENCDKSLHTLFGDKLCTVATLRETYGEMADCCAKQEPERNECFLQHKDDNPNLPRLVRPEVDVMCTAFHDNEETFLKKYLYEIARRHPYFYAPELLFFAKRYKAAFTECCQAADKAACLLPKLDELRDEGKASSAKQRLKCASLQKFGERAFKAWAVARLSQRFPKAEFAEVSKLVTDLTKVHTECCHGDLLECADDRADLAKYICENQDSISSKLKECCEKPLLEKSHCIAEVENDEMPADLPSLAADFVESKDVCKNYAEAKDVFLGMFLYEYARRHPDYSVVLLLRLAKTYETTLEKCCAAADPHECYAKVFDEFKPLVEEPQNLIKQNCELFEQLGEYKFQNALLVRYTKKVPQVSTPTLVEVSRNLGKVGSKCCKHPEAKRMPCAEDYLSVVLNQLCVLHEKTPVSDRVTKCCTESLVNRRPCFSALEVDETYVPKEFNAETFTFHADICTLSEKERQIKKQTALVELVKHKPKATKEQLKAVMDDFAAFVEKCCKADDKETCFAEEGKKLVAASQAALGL

CN(C)c1cccc2c(S(=O)(=O)NCC(=O)O)cccc12 [dansylglycine]
fluorescent probe displaced from HSA by GdLx: Determined by displacement of fluorescent dansylglycine from HSA upon addition of GdLx
